Assay results from paper doi:10.1101/2025.07.20.665728 (bioRxiv, 2025).

Key:
Format in all cases: cell-based
C1R.MR1^K43A cells = assay: Cell surface MR1 K43A quantification, C1R.MR1^K43A
Text: (§1) We then tested the effect of the RF catabolites on the expression of two mutant versions of MR1 termed MR1^R9H ([Howson et al., 2020]) and MR1^K43A ([Reantragoon et al., 2013]). First, we tested the MR1^R9H mutant ([Howson et al., 2020]) which represents a rare, natural human polymorph. […] When C1R. […] Next, we tested sought to understand how the previously characterised Lys43A mutation affects ligand binding. […] While this is in line with the ability of these ligands to bind MR1, the reason for MR1^K43A cell surface accumulation is less clear. The most likely explanation is that these ligands bind ER-resident MR1^K43A, in line with our data using wild-type MR1; however, because the K43A mutation results in spontaneous MR1 surface egress, the presence of these stabilising ligands promotes enhanced trafficking and/or retention at the cell surface. We cannot rule out however that the ligands may also bind directly to surface MR1^K43A and slow down the recycling from cell surface.
The level of MR1 expressed on the cell surface was measured after the exposure to the investigated ligands as previously described ([Awad et al., 2020a]; [Wang et al., 2022a]). C1R antigen presenting B lymphocytes overexpressing MR1*01 (C1R.MR1), MR1^K43A mutant (C1R.MR1^K43A), MR1^R9H mutant (C1R.MR1^R9H) or HLA-A*02:01 (C1R-A2), in addition to the monocytic THP-1-MR1 cells, were used in this study. 2 x 10^5 cells were incubated with RF catabolites for 3 or 16 h at 37° C and 5% CO2 in 200 μl folate-free RPMI 1640 medium from Gibco (Cat. No. 11875-093) fortified with 10% fetal bovine serum (FBS), sodium pyruvate (1 mmol/L), Hepes buffer (15 mmol/L), pH 7.2 to 7.5, 2% penicillin (100 U/ml), streptomycin ([…]), glutamax (2 mmol/L), nonessential amino acids (0.1 mmol/L) (all from ThermoFisher, Life Technologies), and 2-mercaptoethanol ([…], Sigma) (RF-10). After incubation, the cells were first stained with Zombie Aqua Fixable Viability Kit from BioLegend (Cat. No. 423102) and then incubated with biotinylated 8F2F9 αMR1 antibody for 30 minutes on ice. The unbound antibody was then washed off with 2% fetal bovine serum/PBS. The cells were finally incubated with PE-conjugated streptavidin (BioLegend, 30 μg/ml) and then washed with 2% fetal bovine serum/PBS. The PE fluorescence intensity reflects the surface MR1 level. The data was acquired with an LSRFortessa X-20 (BD Biosciences) and Diva software (BD Biosciences) and analyzed using FlowJo software (BD Biosciences).
Figure S2. Responses of different APCs to RF catabolites. […] C1R cells expressing (b) wild-type level of MR1*01, or overexpressing (c) HLA-A*02:01 or (d) MR1.K43A mutant were incubated for the indicated periods with titrated quantities of ligand followed by flow cytometry. The C1R and C1R.A2 cells were stained with biotinylated 8F2F9 and W6/32, respectively; followed by PE-labelled streptavidin. In all experiments, the MR1 and HLA-A*02:01 surface expression are depicted as a fold change from basal surface expression upon incubation with the vehicle (1 mM NaOH). Each column represents the average of at least three independent experiments performed in duplicate with standard error (SEM) represented by error bars. One-way ANOVA statistical analysis was performed for all samples followed by Dunnett multiple comparison test using NaOH as a control (ns; not significant, * p <0.05, **p < 0.01, ***p < 0.001, ****p < 0.0001).

C1R.MR1 cells = assay: Intracellular total folded MR1 by flow cytometry (8F2.F9); settings: C1R.MR1, 100 μM, 16 h
[1] = system: SKW-3 cells expressing AF-7 (TRAV1-2/TRBV6-1) TCR; assay: MAIT cell activation assay, SKW-3 AF-7 TCR co-cultured with C1R.MR1; settings: for 5-OP-RU-induced activation (CD69): SKW-3 AF-7, in presence of 1 nM 5-OP-RU; for CD69 surface expression (activation): SKW-3 AF-7, ligand alone
Method: Next, we explored whether RF catabolites could activate SKW-3 cells expressing two different MAIT TCRs. Distinct responses of T cells expressing TCRs with varying TRBV chain usage reinforces the role of Vβ in modulating MAIT responses to various ligands ([Chancellor et al., 2023]; [Gherardin et al., 2016]; [Seneviratna et al., 2022]).The surface expression of CD69 was measured as a marker for activation of cells expressing the AF-7 (TRAV1-2/TRBV6-1) or MBV28 (TRAV1-2/TRBV28) TCRs after co-culture with C1R.MR1 cells and the ligands.
C1R.MR1 cells (1 x 10^5) were initially stained with CTV for 15 minutes and then incubated with RF catabolites for 20 h. […] Cells were subsequently stained with PE-Cy7-conjugated anti-CD69 (BD; 1:100) and PE-labelled anti-MR1 (26.5 clone; BD; 1:100), before analysis on LSRFortessa (BD Biosciences) flow cytometer. Activation of SKW-3-MAIT cells was reflected by the cell-surface CD69 expression.

MAIT cells in human PBMC [2] = assay: MAIT cell proliferation in CTV-labeled PBMCs; settings: day 7, 5-OP-RU 10 μM, RF ligands 100 μM
MAIT cells in human PBMC [3] = assay: Primary MAIT activation (CD69) in PBMCs; settings: 16 h, co-incubation with 5-OP-RU
THP-1.MR1 cells = assay: Cell surface MR1 quantification by flow cytometry, THP-1.MR1; settings: THP-1.MR1, 3 h
Method: Next, we investigated whether these RF catabolites can impact MR1 cell surface expression in both MR1-transduced B cell lymphoblastoid (C1R.MR1) and monocytic (THP-1.MR1) cell lines (Fig. 2). Here, the cells were pulsed with 1–200 μM of RF or the RF catabolites, and the cell surface levels of MR1 were quantified by flow cytometry ([Awad et al., 2020a]; [Keller et al., 2017]). Cell viability was unaffected, even at highest concentrations of the catabolites, as depicted in Fig. S2A. […] No impact on the MR1 surface level was observed when the parental C1R cells were incubated with these RF catabolites, probably due to the low basal surface MR1 level whose further reduction becomes undetectable by the anti-MR1 antibody (Fig. S2B). The MR1 downregulation seen in C1R.MR1 cells was specific to MR1 as the level of HLA-A*02:01 was not affected after pulsing C1R-A2 with the ligands (Fig. S2C). […]
(§2) The level of MR1 expressed on the cell surface was measured after the exposure to the investigated ligands as previously described ([Awad et al., 2020a]; [Wang et al., 2022a]). […] The PE fluorescence intensity reflects the surface MR1 level. The data was acquired with an LSRFortessa X-20 (BD Biosciences) and Diva software (BD Biosciences) and analyzed using FlowJo software (BD Biosciences).

C1R.MR1^R9H cells = assay: Cell surface MR1 R9H quantification, C1R.MR1^R9H
Text: as §1, §2

O=c1nc2[nH]c3ccccc3nc-2c(=O)[nH]1 [Alloxazine, alloxazine]
MR1^K43A at the cell surface (C1R.MR1^K43A cells; 3 h): increased | total level of folded MR1 (intracellular staining with 8F2.F9) (C1R.MR1 cells): also increased the total level of folded MR1

Cc1cc2nc3[nH]c(=O)[nH]c(=O)c3nc2cc1C [Lumichrome, 7,8-dimethylalloxazine]
5-OP-RU-induced activation (CD69) [1]: enhanced the 5-OP-RU-induced CD69 expression | CD69 surface expression (activation) [1]: minor reductions in CD69 | MR1 expression on C1R.MR1 in co-culture ([1]; SKW-3 AF-7 co-culture with 5-OP-RU): dose-dependent reduction in MR1 expression | MAIT cell proliferation (MAIT cells in human PBMC [2]): significantly reduced MAIT cell proliferation | MR1^K43A at the cell surface (C1R.MR1^K43A cells; 3 h): increased | MR1^K43A at the cell surface (C1R.MR1^K43A cells; 16 h): MR1 upregulation continues | competition with 5-OP-RU for MAIT activation (CD69) (MAIT cells in human PBMC [3]): most potent competitor | total level of folded MR1 (intracellular staining with 8F2.F9) (C1R.MR1 cells): also increased the total level of folded MR1

Cc1cc2nc3c(=O)[nH]c(=O)nc-3n(C)c2cc1C [Lumiflavin]
MR1 cell surface expression (THP-1.MR1 cells): downregulated MR1 | 5-OP-RU-induced activation (CD69) [1]: slightly exaggerated | CD69 surface expression (activation) [1]: minor increase in CD69 | MR1^K43A at the cell surface (C1R.MR1^K43A cells; 3 h): increased

Cc1cc2nc3c(=O)[nH]c(=O)nc-3n(C[C@H](O)[C@H](O)[C@H](O)CO)c2cc1C [RF, Riboflavin]
5-OP-RU-induced activation (CD69) [1]: could not compete with 5-OP-RU | CD69 surface expression (activation) [1]: minor increase in CD69 | MR1^R9H surface level (C1R.MR1^R9H cells): did not deviate from the background level | MR1^K43A at the cell surface (C1R.MR1^K43A cells; 16 h): MR1 upregulation continues | competition with 5-OP-RU for MAIT activation (CD69) (MAIT cells in human PBMC [3]): potent concentration-dependent competition
